# According to patent US9416115B2, “Fused heterocyclic compounds as ion channel modulators” (Gilead Sciences, Inc., priority 2013, dated 2016):
# Target: T1, wild-type human cardiac sodium channel, hNav1.5 (Homo sapiens, UniProt Q14524)
# Assay: Late INa screening assay (QPatch whole cell patch clamp, Tefluthrin-induced late current)
# Format: cell-based
# Conditions: 1 uM; HEK293 hNav1.5; percent block of late INa
# Method: (§1) The cardiac late sodium current (Late INa) and peak sodium current (Peak INa) assays are performed on an automated electrophysiology platform, QPatch 16X or QPatch HT (Sophion Bioscience, Copenhagen, Denmark) using the whole cell patch clamp technique to measure currents through the cell membrane. The assay uses an HEK293 (human embryonic kidney) cell line heterologously expressing the wild-type human cardiac sodium channel, hNav1.5, purchased from Millipore (Billerica, Mass.). No beta subunits were coexpressed with the Na channel alpha subunit. Cells are maintained with standard tissue culture procedures and stable channel expression is maintained with 400 μg/mL Geneticin in the culture medium. Experiments are carried out at 23-25° C.
# (§2) For both the Late INa and Peak INa assays, series resistance compensation is set to 100% and series resistance and whole-cell compensation are performed automatically. Currents are digitized at 25 kHz and low-pass filtered at 5 kHz and stored in the Sophion Bioscience Oracle database (Sophion Bioscience, Copenhagen, Denmark). Analysis is performed using QPatch Assay software and data are compiled in Excel 2010 (Microsoft, Seattle, Wash., U.S.A.).
# (§3) Compound stocks are routinely made by the Gilead Sample Bank in vials to 10 mM in dimethyl sulfoxide (DMSO). In some cases, when compounds are not soluble in DMSO, they are made in 100% ethanol. Stocks are sonicated as necessary. The extracellular solution for screening Late INa is composed of: 140 mM NaCl, 4 mM KCl, 1.8 mM CaCl2, 1 mM MgCl2, 10 mM HEPES and 10 mM Dextrose with pH adjusted to 7.35 using NaOH. The intracellular solution contains: 105 mM CsF, 20 mM CsCl, 10NaF, 2 mM EGTA, 10 mM HEPES and 10 mM Dextrose with pH adjusted to 7.35 with CsOH. Compounds are diluted in extracellular solution using a MicroLab Nimbus (Hamilton Robotics, Reno, Nev.) to between 0.3 and 3 μM in glass vials and transferred to glass well plates before robotic addition to the cells. The 0 mM Na extracellular solution (0Na-ECF) used at the end of each experiment for the Late INa and Peak INa assays to measure baseline current contains: 140 Choline-Cl; 4 mM KCl, 1.8 mM CaCl2; 1 mM MgCl2; 10 mM HEPES and 10 mM Dextrose with pH was adjusted to 7.35 with CsOH.
# For the Late INa assay, sodium channels are activated every 10 seconds (0.1 Hz) by depolarizing the cell membrane to −20 mV for 250 milliseconds (ms) from a holding potential of −120 mV.
# Compounds were tested to determine their activity in blocking the late sodium current. Late INa was generated by adding 10 μM Tefluthrin (pyrethroid) to the extracellular solution. For the purposes of the screening, Late INa is defined as the mean current between […] during the voltage step to −20 mV. After establishing the whole cell recording configuration, Late INa activator is added to each well 4 times over a 15 minute period so that the late component of the Na current reaches a stable value. Compounds were then added (typically at 0.3 or 1 μM), in the presence of the Late Na^+ activator, with 3 additions over the course of 5 minutes. Measurements were made at the end of exposure to the third compound addition and values were normalized to the current level when all Na^+ was removed from the extracellular solution after two additions of 0Na-ECF.
# Results are reported as percent block of late INa and results were analyzed by incorporating rundown correction for the Late INa.
# T1 sequence (Q14524 whole entry): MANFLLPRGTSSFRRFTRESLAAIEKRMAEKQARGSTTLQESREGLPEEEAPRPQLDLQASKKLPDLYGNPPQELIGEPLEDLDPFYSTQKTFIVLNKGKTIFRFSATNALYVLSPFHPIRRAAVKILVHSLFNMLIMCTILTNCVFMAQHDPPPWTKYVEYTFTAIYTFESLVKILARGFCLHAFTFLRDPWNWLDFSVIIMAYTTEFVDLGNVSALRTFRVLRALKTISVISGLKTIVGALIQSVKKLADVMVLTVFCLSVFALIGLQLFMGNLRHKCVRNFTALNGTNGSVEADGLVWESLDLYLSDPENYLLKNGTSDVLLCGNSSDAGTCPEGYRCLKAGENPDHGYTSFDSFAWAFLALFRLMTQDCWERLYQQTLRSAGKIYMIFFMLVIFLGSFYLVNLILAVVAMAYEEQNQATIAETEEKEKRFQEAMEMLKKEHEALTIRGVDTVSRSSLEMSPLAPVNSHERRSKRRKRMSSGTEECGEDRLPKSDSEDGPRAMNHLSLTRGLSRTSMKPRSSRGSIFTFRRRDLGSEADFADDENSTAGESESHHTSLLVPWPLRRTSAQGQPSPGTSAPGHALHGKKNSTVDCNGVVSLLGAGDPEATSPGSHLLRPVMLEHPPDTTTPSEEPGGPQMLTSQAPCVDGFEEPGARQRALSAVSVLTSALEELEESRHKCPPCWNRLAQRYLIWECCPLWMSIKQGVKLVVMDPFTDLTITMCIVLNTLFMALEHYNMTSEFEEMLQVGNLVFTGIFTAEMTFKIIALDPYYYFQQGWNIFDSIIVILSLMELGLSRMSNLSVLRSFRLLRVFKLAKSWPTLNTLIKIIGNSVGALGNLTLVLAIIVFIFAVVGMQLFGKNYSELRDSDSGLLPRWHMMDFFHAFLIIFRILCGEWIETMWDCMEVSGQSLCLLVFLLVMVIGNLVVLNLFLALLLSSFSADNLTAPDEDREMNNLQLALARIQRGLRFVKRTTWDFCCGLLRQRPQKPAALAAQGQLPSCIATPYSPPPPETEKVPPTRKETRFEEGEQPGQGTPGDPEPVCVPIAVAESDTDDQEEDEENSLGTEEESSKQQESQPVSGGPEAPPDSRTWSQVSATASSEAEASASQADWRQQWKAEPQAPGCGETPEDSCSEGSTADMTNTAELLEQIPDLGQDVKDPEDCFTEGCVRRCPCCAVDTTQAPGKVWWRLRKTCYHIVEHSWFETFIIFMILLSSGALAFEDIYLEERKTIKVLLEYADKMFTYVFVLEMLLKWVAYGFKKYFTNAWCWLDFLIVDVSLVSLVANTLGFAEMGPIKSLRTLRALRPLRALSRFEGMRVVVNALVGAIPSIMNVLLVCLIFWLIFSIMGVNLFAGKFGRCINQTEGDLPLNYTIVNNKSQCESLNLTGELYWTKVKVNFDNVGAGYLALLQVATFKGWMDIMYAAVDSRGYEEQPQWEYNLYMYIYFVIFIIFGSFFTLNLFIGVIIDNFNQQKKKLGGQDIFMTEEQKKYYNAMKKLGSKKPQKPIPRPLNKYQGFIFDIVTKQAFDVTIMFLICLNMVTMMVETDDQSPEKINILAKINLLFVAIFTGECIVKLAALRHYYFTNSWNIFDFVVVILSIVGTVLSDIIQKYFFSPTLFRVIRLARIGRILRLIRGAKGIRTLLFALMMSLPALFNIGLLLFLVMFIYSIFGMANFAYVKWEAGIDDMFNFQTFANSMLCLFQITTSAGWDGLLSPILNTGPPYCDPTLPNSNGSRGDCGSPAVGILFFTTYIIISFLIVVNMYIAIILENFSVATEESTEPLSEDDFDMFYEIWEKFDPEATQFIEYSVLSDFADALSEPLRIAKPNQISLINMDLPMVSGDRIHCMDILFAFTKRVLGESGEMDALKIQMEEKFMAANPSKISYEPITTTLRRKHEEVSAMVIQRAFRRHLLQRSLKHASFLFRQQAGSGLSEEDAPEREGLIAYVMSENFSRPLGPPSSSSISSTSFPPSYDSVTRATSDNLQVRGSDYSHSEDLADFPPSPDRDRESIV
row,SMILES,inhibition at 1 µM
1,"FC(F)(F)Oc1ccc(-c2ccc3onc(OCCc4ncc[nH]4)c3c2)cc1 [Example 66, 3-(2-(1H-imidazol-2-yl)ethoxy)-5-(4-(trifluoromethoxy)phenyl)benzo[d]isoxazole]",21.9%
2,"FC(F)(F)Oc1ccc(-c2ccc3onc(OCc4cnn(-c5ccccn5)c4)c3c2)cc1 [Example 65, 3-((1-(pyridin-2-yl)-1H-pyrazol-4-yl)methoxy)-5-(4-(trifluoromethoxy)phenyl)benzo[d]isoxazole]",27%
3,"Cn1cnc(COc2noc3ccc(-c4ccc(OC(F)(F)F)cc4)cc23)c1 [Example 43, 3-((1-methyl-1H-imidazol-4-yl)methoxy)-5-(4-(trifluoromethoxy)phenyl)benzo[d]isoxazole]",27.1%
4,"CC(C)Nc1noc2ccc(-c3ccc(OC(F)(F)F)cc3)cc12 [Example 131, N-isopropyl-5-(4-(trifluoromethoxy)phenyl)benzo[d]isoxazol-3-amine]",24.8%
5,"Cc1cccc(COc2noc3c(C)cc(-c4ccc(OC(F)(F)F)cc4)cc23)n1 [Example 106, 7-methyl-3-((6-methylpyridin-2-yl)methoxy)-5-(4-(trifluoromethoxy)phenyl)benzo[d]isoxazole]",28.3%
6,"c1cnc(COc2noc3ccc(-c4ccc(C5CC5)nc4)cc23)nc1 [Example 20, 5-(6-cyclopropylpyridin-3-yl)-3-(pyrimidin-2-ylmethoxy)benzo[d]isoxazole]",28.8%
7,"N#CCC1(COc2noc3ccc(-c4ccc(OC(F)(F)F)cc4)cc23)CC1 [Example 54, 2-(1-(((5-(4-(trifluoromethoxy)phenyl)benzo[d]isoxazol-3-yl)oxy)methyl)cyclopropyl)acetonitrile]",29.2%
8,"FC(F)(F)Oc1ccc(-c2ccc3onc(OCc4c[nH]nn4)c3c2)cc1 [Example 83, 3-((1H-1,2,3-triazol-4-yl)methoxy)-5-(4-(trifluoromethoxy)phenyl)benzo[d]isoxazole]",23.7%
9,"O=S1(=O)CCN(CCOc2noc3ccc(-c4ccc(OC(F)(F)F)cc4)cc23)CC1 [Example 85, 4-(2-((5-(4-(trifluoromethoxy)phenyl)benzo[d]isoxazol-3-yl)oxy)ethyl)thiomorpholine 1,1-dioxide]",22.5%
10,"COc1ccnc(COc2noc3c(C)cc(-c4ccc(OC(F)(F)F)cc4)cc23)n1 [Example 90, 3-((4-methoxypyrimidin-2-yl)methoxy)-7-methyl-5-(4-(trifluoromethoxy)phenyl)benzo[d]isoxazole]",20.9%
11,"Cc1cc(C)n(CCOc2noc3ccc(-c4ccc(OC(F)(F)F)cc4)cc23)n1 [Example 69, 3-(2-(3,5-dimethyl-1H-pyrazol-1-yl)ethoxy)-5-(4-(trifluoromethoxy)phenyl)benzo[d]isoxazole]",29.6%
12,"Cc1nccn1-c1noc2ccc(-c3ccc(OC(F)(F)F)cc3)cc12 [Example 138, 3-(2-methyl-1H-imidazol-1-yl)-5-(4-(trifluoromethoxy)phenyl)benzo[d]isoxazole]",29.8%
13,"FC(F)(F)Oc1ccc(-c2ccc3onc(OCc4nccc(C(F)(F)F)n4)c3c2)cc1 [Example 86, 5-(4-(trifluoromethoxy)phenyl)-3-((4-(trifluoromethyl)pyrimidin-2-yl)methoxy)benzo[d]isoxazole]",21.9%
14,"Cc1cc(-c2cccc(OC(F)(F)F)c2)cc2c(OCc3ncccn3)noc12 [Example 19, 7-methyl-3-(pyrimidin-2-ylmethoxy)-5-(3-(trifluoromethoxy)phenyl)benzo[d]isoxazole]",27.5%
15,"O=C1CC[C@@H](COc2noc3ccc(-c4ccc(OC(F)(F)F)cc4)cc23)N1 [Example 62, (S)-5-(((5-(4-(trifluoromethoxy)phenyl)benzo[d]isoxazol-3-yl)oxy)methyl)pyrrolidin-2-one]",28.4%
16,"Cc1cc(OC(F)(F)F)ccc1-c1cc2c(OCc3ncccn3)noc2cc1F [Example 34, 6-fluoro-5-(2-methyl-4-(trifluoromethoxy)phenyl)-3-(pyrimidin-2-ylmethoxy)benzo[d]isoxazole]",21%
17,"COc1cc2onc(OCc3ncccn3)c2cc1-c1ccc(OC(F)(F)F)cc1 [Example 11, 6-methoxy-3-(pyrimidin-2-ylmethoxy)-5-(4-(trifluoromethoxy)phenyl)benzo[d]isoxazole]",30%
18,"Fc1cc(-c2ccc(OC(F)(F)F)cc2)cc2c(OCCn3cncn3)noc12 [Example 84, 3-(2-(1H-1,2,4-triazol-1-yl)ethoxy)-7-fluoro-5-(4-(trifluoromethoxy)phenyl)benzo[d]isoxazole]",23.6%
19,"Cc1cc(-c2cc3c(OCc4ncccn4)noc3cc2F)ccc1OC(F)(F)F [Example 32, 6-fluoro-5-(3-methyl-4-(trifluoromethoxy)phenyl)-3-(pyrimidin-2-ylmethoxy)benzo[d]isoxazole]",28.8%
20,"FC(F)(F)Oc1ccc(-c2ccc3onc(OCc4cc5ccccc5cn4)c3c2)cc1 [Example 82, 3-(isoquinolin-3-ylmethoxy)-5-(4-(trifluoromethoxy)phenyl)benzo[d]isoxazole]",28.1%
21,"Cc1nc(COc2noc3ccc(-c4ccc(OC(F)(F)F)cc4)cc23)c(C)o1 [Example 52, 3-((2,5-dimethyloxazol-4-yl)methoxy)-5-(4-(trifluoromethoxy)phenyl)benzo[d]isoxazole]",24.3%
22,"Fc1cc(OC(F)(F)F)ccc1-c1ccc2onc(OCc3ncccn3)c2c1 [Example 2, 5-(2-fluoro-4-(trifluoromethoxy)phenyl)-3-(pyrimidin-2-ylmethoxy)benzo[d]isoxazole]",54.6%
23,"O=C1CC[C@H](CNc2noc3ccc(-c4ccc(OC(F)(F)F)cc4)cc23)N1 [Example 134, (R)-5-(((5-(4-(trifluoromethoxy)phenyl)benzo[d]isoxazol-3-yl)amino)methyl)pyrrolidin-2-one]",21.1%
24,"FC(F)(F)Oc1ccc(-c2ccc3onc(OCc4nccc(N5CCOCC5)n4)c3c2)cc1 [Example 70, 3-((4-morpholinopyrimidin-2-yl)methoxy)-5-(4-(trifluoromethoxy)phenyl)benzo[d]isoxazole]",25.5%

# Target: T1, wild-type human cardiac sodium channel, hNav1.5
# Assay: Peak INa screening assay (tonic block and use-dependent block)
# Format: cell-based
# Conditions: tonic block of Peak INa, 0.1 Hz, holding -100 mV, read-out: Peak TB 3 uM
# Method: as §1, §2, §3
# Compounds were evaluated for their effect Nav1.5 Peak INa. It is contemplated that the compounds of Formula I avoid significant block of peak INa. Since the peak INa in the cells used herein can be very large, introducing artifacts in the recording, the concentration of Na^+ in the bath can be reduced to 40 mM by isosmotic replacement of Na^+ with Choline (see below).
# Tonic Block (TB) of Peak INa was measured using a voltage step to −20 mV from a holding potential of −100 mV at a low stimulation frequency of 0.1 Hz. Use-Dependent Block (UDB) of Peak INa was measured during pulse number 50 of a pulse train (−20 mV, 20 ms, 50 pulses, 3 Hz) from a holding potential of −100 mV.
# The extracellular solution for screening Peak INa is composed of: 40 mM NaCl, 100 mM Choline-Cl, 4 mM KCl, 1.8 mM CaCl2, 1 mM MgCl2 10 mM HEPES and 10 mM Dextrose with pH adjusted to 7.35 using NaOH. The intracellular solution used for the Peak INa assay is the same as outlined for the Late INa assay (see above).
# After establishing the whole cell recording configuration, channels were stimulated to open with low frequency (0.1 Hz) so that the recording can be monitored and the extent to which the recording has stabilized can be assessed.
# The test compound is then applied at 1 or 3 μM and was added 2 times at 60 second intervals. After the second compound addition, a 200 second wait period was imposed to allow for equilibration. Voltage protocols for TB and UDB are were performed in the absence and presence of compound and TB and UDB are calculated with respect to the compound free condition. Both TB and UDB were analyzed by incorporating rundown correction for the peak INa.
row,SMILES,inhibition at 3 µM
1,"Fc1cc(OC(F)(F)F)ccc1-c1ccc2onc(OCc3ncccn3)c2c1 [Example 2, 5-(2-fluoro-4-(trifluoromethoxy)phenyl)-3-(pyrimidin-2-ylmethoxy)benzo[d]isoxazole]",66.1%

# Same assay, conditions: use-dependent block of Peak INa, 3 Hz, pulse 50, read-out: Peak UDB 3 Hz 3 uM
row,SMILES,inhibition at 3 µM
1,"Fc1cc(OC(F)(F)F)ccc1-c1ccc2onc(OCc3ncccn3)c2c1 [Example 2, 5-(2-fluoro-4-(trifluoromethoxy)phenyl)-3-(pyrimidin-2-ylmethoxy)benzo[d]isoxazole]",27.9%
